Measurements taken from the CheMixHub viscosity set.
Several values for one entry are separate records, joined by “and”; a condition that tells them apart may be missing. Equal entries are not always repeated.

Experiment: xn = mol fraction of the nth substance listed
Conditions: 101.3 kPa

O=[N+]([O-])c1ccccc1 + CCCCC
Conditions | viscosity
293.15 K, x1 = 0.0998 | 0.272 mPa·s
293.15 K, x1 = 0.1994 | 0.336 mPa·s
293.15 K, x1 = 0.5984 | 0.79 mPa·s
293.15 K, x1 = 0.6995 | 0.972 mPa·s
293.15 K, x1 = 0.7997 | 1.221 mPa·s
293.15 K, x1 = 0.9 | 1.549 mPa·s
297.15 K, x1 = 0.0998 | 0.262 mPa·s
297.15 K, x1 = 0.1994 | 0.322 mPa·s
297.15 K, x1 = 0.299 | 0.42 mPa·s
297.15 K, x1 = 0.3491 | 0.52 mPa·s
297.15 K, x1 = 0.399 | 0.596 mPa·s
297.15 K, x1 = 0.4589 | 0.603 mPa·s
297.15 K, x1 = 0.494 | 0.623 mPa·s
297.15 K, x1 = 0.5984 | 0.748 mPa·s
297.15 K, x1 = 0.6995 | 0.921 mPa·s
297.15 K, x1 = 0.7997 | 1.15 mPa·s
297.15 K, x1 = 0.9 | 1.452 mPa·s
297.16 K, x1 = 0.383 | 0.62 mPa·s
297.17 K, x1 = 0.299 | 0.42 mPa·s
297.17 K, x1 = 0.3491 | 0.517 mPa·s
297.17 K, x1 = 0.383 | 0.619 mPa·s and 0.617 mPa·s and 0.61 mPa·s
297.17 K, x1 = 0.3832 | 0.614 mPa·s
297.17 K, x1 = 0.399 | 0.591 mPa·s
297.17 K, x1 = 0.4589 | 0.602 mPa·s
297.17 K, x1 = 0.494 | 0.623 mPa·s
297.18 K, x1 = 0.383 | 0.604 mPa·s
297.2 K, x1 = 0.383 | 0.593 mPa·s
297.23 K, x1 = 0.383 | 0.583 mPa·s
297.29 K, x1 = 0.383 | 0.565 mPa·s
297.34 K, x1 = 0.383 | 0.558 mPa·s
297.44 K, x1 = 0.383 | 0.546 mPa·s
297.6 K, x1 = 0.383 | 0.535 mPa·s
297.65 K, x1 = 0.0998 | 0.261 mPa·s
297.65 K, x1 = 0.1994 | 0.321 mPa·s
297.65 K, x1 = 0.299 | 0.415 mPa·s
297.65 K, x1 = 0.3491 | 0.488 mPa·s
297.65 K, x1 = 0.3832 | 0.532 mPa·s
297.65 K, x1 = 0.399 | 0.55 mPa·s
297.65 K, x1 = 0.4589 | 0.592 mPa·s
297.65 K, x1 = 0.494 | 0.616 mPa·s
297.65 K, x1 = 0.5984 | 0.743 mPa·s
297.65 K, x1 = 0.6995 | 0.915 mPa·s
297.65 K, x1 = 0.7997 | 1.142 mPa·s
297.65 K, x1 = 0.9 | 1.441 mPa·s
298 K, x1 = 0.383 | 0.52 mPa·s
298.15 K, x1 = 0.0998 | 0.26 mPa·s
298.15 K, x1 = 0.1994 | 0.319 mPa·s
298.15 K, x1 = 0.299 | 0.411 mPa·s
298.15 K, x1 = 0.3491 | 0.476 mPa·s
298.15 K, x1 = 0.3832 | 0.515 mPa·s
298.15 K, x1 = 0.399 | 0.536 mPa·s
298.15 K, x1 = 0.4589 | 0.584 mPa·s
298.15 K, x1 = 0.494 | 0.61 mPa·s
298.15 K, x1 = 0.5984 | 0.738 mPa·s
298.15 K, x1 = 0.6995 | 0.909 mPa·s
298.15 K, x1 = 0.7997 | 1.134 mPa·s
298.15 K, x1 = 0.9 | 1.43 mPa·s
298.76 K, x1 = 0.383 | 0.504 mPa·s
299.15 K, x1 = 0.0998 | 0.257 mPa·s
299.15 K, x1 = 0.1994 | 0.316 mPa·s
299.15 K, x1 = 0.299 | 0.404 mPa·s
299.15 K, x1 = 0.3491 | 0.461 mPa·s
299.15 K, x1 = 0.3832 | 0.498 mPa·s
299.15 K, x1 = 0.399 | 0.518 mPa·s
299.15 K, x1 = 0.4589 | 0.571 mPa·s
299.15 K, x1 = 0.494 | 0.6 mPa·s
299.15 K, x1 = 0.5984 | 0.729 mPa·s
299.15 K, x1 = 0.6995 | 0.897 mPa·s
299.15 K, x1 = 0.7997 | 1.118 mPa·s
299.15 K, x1 = 0.9 | 1.406 mPa·s
299.88 K, x1 = 0.383 | 0.489 mPa·s
302.28 K, x1 = 0.383 | 0.466 mPa·s
305.15 K, x1 = 0.0998 | 0.245 mPa·s
305.15 K, x1 = 0.1994 | 0.298 mPa·s
305.15 K, x1 = 0.299 | 0.373 mPa·s
305.15 K, x1 = 0.3491 | 0.417 mPa·s
305.15 K, x1 = 0.3832 | 0.447 mPa·s
305.15 K, x1 = 0.399 | 0.466 mPa·s
305.15 K, x1 = 0.4589 | 0.52 mPa·s
305.15 K, x1 = 0.494 | 0.551 mPa·s
305.15 K, x1 = 0.5984 | 0.677 mPa·s
305.15 K, x1 = 0.6995 | 0.831 mPa·s
305.15 K, x1 = 0.7997 | 1.031 mPa·s
305.15 K, x1 = 0.9 | 1.284 mPa·s
305.99 K, x1 = 0.383 | 0.442 mPa·s
313.15 K, x1 = 0.0998 | 0.229 mPa·s
313.15 K, x1 = 0.1994 | 0.277 mPa·s
313.15 K, x1 = 0.299 | 0.342 mPa·s
313.15 K, x1 = 0.3491 | 0.38 mPa·s
313.15 K, x1 = 0.3832 | 0.403 mPa·s
313.15 K, x1 = 0.399 | 0.424 mPa·s
313.15 K, x1 = 0.4589 | 0.471 mPa·s
313.15 K, x1 = 0.494 | 0.503 mPa·s
313.15 K, x1 = 0.5984 | 0.616 mPa·s
313.15 K, x1 = 0.6995 | 0.753 mPa·s
313.15 K, x1 = 0.7997 | 0.929 mPa·s
313.15 K, x1 = 0.9 | 1.143 mPa·s
